Laboratory results: patent publication US20240261272A1, “LPA1 ANTAGONISTS FOR TREATING INTERSTITIAL LUNG DISEASE” (Bristol-Myers Squibb Company, priority 2022, published 2024)

Experiments:
Type in all cases: in vivo, human
participants with IPF = experiment: Phase 2 study, IPF cohort: efficacy (rate of change in ppFVC, FVC); settings: for relative treatment benefit compared to PBO (ppFVC) / relative reduction in rate of decline in ppFVC compared to PBO: 60 mg; for relative reduction in rate of decline in ppFVC compared to PBO: overall
Procedure: A total of 278 participants with IPF were randomized and 276 participants were treated as of the final analyses data cut-off (4 Aug. 2022). Male and female participants ≥40 years of age with IPF and percent predicted forced vital capacity (ppFVC)≥40% and percent predicted DLCO (ppDLCO)≥25%; diagnosed within 7 years of screening; having a centrally-read chest HRCT obtained at screening that was consistent with UIP or probable UIP, or having a lung biopsy consistent with UIP, were eligible to enter the study. The mean baseline ppFVC for all subjects was 76.5%. In the primary IPF cohort, participants were randomized (1:1:1) to receive 30 mg or 60 mg Compound A or placebo (PBO) twice daily for 26 weeks. Participants were stratified by standard of care (SoC) IPF therapy (pirfenidone versus nintedanib versus none) and region (Japan versus Rest of World) at randomization.
The primary objective of the study was to determine the rate of change in ppFVC from baseline to Week 26. The primary objective was evaluated with a two estimand framework to handle the intercurrent event of dose reduction to 10 mg BID or matching PBO when pre-specified low BP criteria is met. The primary estimand is adopted to estimate treatment effect when dose reduction is implemented. The supplementary estimand is adopted to estimate the effect of treatment without dose reduction.
Analysis Strategy: The primary estimand was to evaluate the efficacy of Compound A at 30 mg or 60 mg twice daily, compared to PBO in IPF participants who met the enrollment criteria, with or without use of SoC. The rate of decline in ppFVC (%) from baseline to Week 26 was compared using the difference between each dose and PBO as a population level summary regardless of dose reduction or treatment discontinuation for any reason (treatment policy strategy).
Analysis Strategy: The supplementary estimand for the primary objective is to evaluate the efficacy of Compound A at 30 mg or 60 mg twice daily without dose reduction, compared to the PBO in IPF subjects who met the enrollment criteria, with or without use of SoC. The rate of decline in ppFVC (%) from baseline to Week 26 has been compared using the difference between each dose and PBO as a population level summary regardless of treatment discontinuation for any reason (treatment policy strategy). In the event of dose reduction, data collected after dose reduction will not be considered relevant to the treatment effect of interest and therefore, will be treated as missing (while-on-treatment strategy).

[1] = Phase 1 Part B multiple ascending dose (MAD) study in healthy participants: safety, blood pressure; parameters: Mean DBP: unit not given here
Procedure: (§1) The study was performed in 3 parts in 112 healthy male and female participants, including 24 Japanese participants. Female participants were to be not of childbearing potential. The present study was designed to evaluate the safety and tolerability, PK, and exploratory PD of an oral suspension of Compound A. Parts A and B (Cohort B1 only) enrolled healthy participants and was conducted at a site in The Netherlands and Part B (Cohort B2 to B5) enrolled healthy non-Japanese participants and was conducted at a site in the United Kingdom (UK). Part C enrolled healthy Japanese participants and was conducted at the same site in the UK.
Part B was a MAD study in a planned number of 6 sequential dose escalation cohorts (10 mg QD, 30 mg QD, 30 mg BID, 60 mg BID, 125 mg BID, and ≤250 mg BID) of 8 healthy participants (6 active+2 placebo) each, under fasted conditions. However, Cohort B6 (≤250 mg BID) was cancelled because sufficient safety and PK data had been obtained at doses up to 125 mg BID. Eligible participants received study drug (Compound A or placebo) administered orally for 14 days.
(§2) Physical examinations, vital sign measurements (including orthostasis testing in Cohort A6, Cohort B3 to B5, and C1 to C3 at selected time points), 12-lead electrocardiogram (ECG), and clinical laboratory evaluations were performed at selected times throughout the study. In addition, Holter monitoring was performed for the first 24 hours post dose on Day 1 in Part A (not in FE/pH cohort), and also for the first 24 hours post dose on Day 1 and Day 14 in Parts B and C. Participants were closely monitored for adverse events (AEs). Blood samples were collected for up to 14 days (follow-up visit) after (last) study drug administration for PK analysis. In addition, blood and urine were collected for exploratory biomarker assessments and for biobanking of samples for potential analyses. Urine was collected for potential PK analysis for up to 96 hours after a single dose of Compound A or placebo was administered in the SAD part, and for up to 24 hours after the first (morning) dose of study drug on Day 1 and for up to 24 hours after the last (morning) dose of study drug on Day 14 in the MAD parts.

[2] = Phase 1 Part C MAD study in healthy Japanese participants: blood pressure; settings: for Maximum of Mean (±SD) Reduction in DBP from Baseline (Baseline): MAD Japanese Part C
Procedure: as §1
Part C was a MAD study in 3 sequential dose escalation cohorts (30 mg BID, 60 mg BID, and 90 mg BID) of 8 healthy Japanese participants (6 active+2 placebo) each. Eligible participants in Cohorts C1 to C3 received study drug (Compound A or placebo) administered orally for 14 days.
as §2

CCCN(C)C(=O)OCc1c(-c2ccc(O[C@H]3CCC[C@H](C(=O)O)C3)c(C)n2)nnn1C [Compound A, (1S,3S)-3-((2-methyl-6-(1-methyl-5-(((methyl(propyl)carbamoyl)-oxy)methyl)-1H-1,2,3-triazol-4-yl)pyridin-3-yl)oxy)cyclohexane-1-carboxylic acid]
efficacy compared to PBO (in words) (participants with IPF; 30 mg dose group, Week 26): did not demonstrate efficacy
treatment response versus PBO (in words) (participants with IPF; 60 mg dose group, Week 26, ppFVC and FVC (mL)): favorable treatment responses
relative treatment benefit compared to PBO (ppFVC) (participants with IPF; not on background SoC, primary estimand): 113%
relative treatment benefit compared to PBO (ppFVC) (participants with IPF; not on background SoC, supplementary estimand): 123%
relative treatment benefit compared to PBO (ppFVC) (participants with IPF; on background SoC, primary estimand): 39%
relative treatment benefit compared to PBO (ppFVC) (participants with IPF; on background SoC, supplementary estimand): 44%
relative reduction in rate of decline in ppFVC compared to PBO (participants with IPF; primary estimand): 54%
relative reduction in rate of decline in ppFVC compared to PBO (participants with IPF; supplementary estimand): 62%
Mean DBP ([1]; MAD 10 mg QD, D 1 2 h): 70.2
Mean DBP ([1]; MAD 10 mg QD, D 1 4 h): 65.8
Mean DBP ([1]; MAD 10 mg QD, D 1 8 h): 68.7
Mean DBP ([1]; MAD 10 mg QD, D 2 24 h): 65.3
Mean DBP ([1]; MAD 10 mg QD, D 14 312 h): 69.3
Mean DBP ([1]; MAD 10 mg QD, D 14 314 h): 67.5
Mean DBP ([1]; MAD 10 mg QD, D 14 317 h): 64.3
Mean DBP ([1]; MAD 10 mg QD, D 14 320 h): 67.5
Mean DBP ([1]; MAD 10 mg QD, D 15 336 h): 66.8
Mean DBP ([1]; MAD 30 mg BID, D 1 2 h): 63.3
Mean DBP ([1]; MAD 30 mg BID, D 1 4 h): 62.7
Mean DBP ([1]; MAD 30 mg BID, D 1 8 h): 63.2
Mean DBP ([1]; MAD 30 mg BID, D 2 24 h): 66.7
Mean DBP ([1]; MAD 30 mg BID, D 14 312 h): 68.7
Mean DBP ([1]; MAD 30 mg BID, D 14 314 h): 63.8
Mean DBP ([1]; MAD 30 mg BID, D 14 317 h): 61.0
Mean DBP ([1]; MAD 30 mg BID, D 14 320 h): 617
Mean DBP ([1]; MAD 30 mg BID, D 15 336 h): 65.3
Mean DBP ([1]; MAD 30 mg QD, D 1 2 h): 66.5
Mean DBP ([1]; MAD 30 mg QD, D 1 4 h): 67.8
Mean DBP ([1]; MAD 30 mg QD, D 1 8 h): 66.0
Mean DBP ([1]; MAD 30 mg QD, D 2 24 h): 67.3
Mean DBP ([1]; MAD 30 mg QD, D 14 312 h): 63.3
Mean DBP ([1]; MAD 30 mg QD, D 14 314 h): 63.5
Mean DBP ([1]; MAD 30 mg QD, D 14 317 h): 61.8
Mean DBP ([1]; MAD 30 mg QD, D 14 320 h): 63.2
Mean DBP ([1]; MAD 30 mg QD, D 15 336 h): 62.3
Mean DBP ([1]; MAD 60 mg BID, D 1 2 h): 64.5
Mean DBP ([1]; MAD 60 mg BID, D 1 4 h): 66.0
Mean DBP ([1]; MAD 60 mg BID, D 1 8 h): 64.7
Mean DBP ([1]; MAD 60 mg BID, D 2 24 h): 65.7
Mean DBP ([1]; MAD 60 mg BID, D 14 312 h): 64.8
Mean DBP ([1]; MAD 60 mg BID, D 14 314 h): 64.0
Mean DBP ([1]; MAD 60 mg BID, D 14 317 h): 62.5
Mean DBP ([1]; MAD 60 mg BID, D 14 320 h): 63.0
Mean DBP ([1]; MAD 60 mg BID, D 15 336 h): 64.5
Mean DBP ([1]; MAD 125 mg BID, D 1 2 h): 62.3
Mean DBP ([1]; MAD 125 mg BID, D 1 4 h): 64.7
Mean DBP ([1]; MAD 125 mg BID, D 1 8 h): 64.7
Mean DBP ([1]; MAD 125 mg BID, D 2 24 h): 66.3
Mean DBP ([1]; MAD 125 mg BID, D 14 312 h): 62.0
Mean DBP ([1]; MAD 125 mg BID, D 14 314 h): 65.0
Mean DBP ([1]; MAD 125 mg BID, D 14 317 h): 59.2
Mean DBP ([1]; MAD 125 mg BID, D 14 320 h): 61.8
Mean DBP ([1]; MAD 125 mg BID, D 15 336 h): 63.0
BP reductions versus placebo (in words) ([1]; MAD BID groups): no clear differences between placebo and the Compound A groups
BP reduction dose dependence (in words) ([2]; Japanese MAD cohorts): no clear Compound A dose-dependent BP reduction trend
Maximum of Mean (±SD) Reduction in DBP from Baseline (Baseline) ([2]; 30 mg BID (C1)): 8.8 ± 5.12 mmHg
Maximum of Mean (±SD) Reduction in DBP from Baseline (Baseline) ([2]; 60 mg BID (C2)): 8.2 ± 10.40 mmHg
Maximum of Mean (±SD) Reduction in DBP from Baseline (Baseline) ([2]; 90 mg BID (C2)): 8.0 ± 8.22 mmHg
